The structures appear in SMILES notation. ≈ marks a conversion by molar mass, not a printed value. Calls of active or inactive are those of the source. The rule behind the calls is not given here.

For assay [1], the system named is Aspergillus flavus. Nature of the assay: Antifungal activity against Aspergillus flavus by measuring inhibition zone after 48 hrs. The format is functional.
In assay [2] the test system is Aspergillus flavus. Nature of the assay: Antifungal activity against Aspergillus flavus after 48 hrs. Type of assay: functional.
In assay [3] the test system is Trichophyton mentagrophytes. Description: Antifungal activity against Trichophyton mentagrophytes by measuring inhibition zone after 48 hrs. Type of assay: functional.
Assay [4] relates to Trichophyton mentagrophytes. Description: Antifungal activity against Trichophyton mentagrophytes after 48 hrs. The format is functional.
Assay [5] deals with Talaromyces marneffei. Nature of the assay: Antifungal activity against Penicillium marneffei by measuring inhibition zone after 48 hrs. Type of assay: functional.
In assay [6] the test system is Talaromyces marneffei. Nature of the assay: Antifungal activity against Penicillium marneffei after 48 hrs. The format is functional.
In assay [7] the test system is Candida albicans. Nature of the assay: Antifungal activity against Candida albicans by measuring inhibition zone after 48 hrs. The format is functional.
In assay [8] the test system is Candida albicans. Nature of the assay: Antifungal activity against Candida albicans after 48 hrs. The format is functional.
Assay [9] concerns Aspergillus fumigatus. Nature of the assay: Antifungal activity against Aspergillus fumigatus by measuring inhibition zone after 48 hrs. Type of assay: functional.
Assay [10] deals with Aspergillus fumigatus. Description: Antifungal activity against Aspergillus fumigatus after 48 hrs. The format is functional.
For assay [11], the system named is Staphylococcus aureus. Description: Antibacterial activity against Staphylococcus aureus after 24 hrs by broth dilution method. Type of assay: functional.
The subject of assay [12] is Escherichia coli. Description: Antibacterial activity against Escherichia coli after 24 hrs by broth dilution method. Type of assay: functional. For orientation: In broth dilution the organism is exposed to a series of concentrations in liquid medium.
Assay [13] relates to Talaromyces marneffei. Nature of the assay: Antifungal activity against Penicillium marneffei at >100 ug/mL after 48 hrs. Type of assay: functional, organism-based.
Assay [14] relates to Pseudomonas aeruginosa. Description: Antibacterial activity against Pseudomonas aeruginosa after 24 hrs by broth dilution method. The format is functional.
In assay [15] the test system is Klebsiella pneumoniae. Nature of the assay: Antibacterial activity against Klebsiella pneumoniae after 24 hrs by broth dilution method. The format is functional.
Assay [16] concerns Streptococcus pyogenes. Nature of the assay: Antibacterial activity against Streptococcus pyogenes after 24 hrs by broth dilution method. The format is functional.
For assay [17], the system named is Staphylococcus aureus. Description: Antibacterial activity against Staphylococcus aureus after 24 hrs. Type of assay: functional.
For assay [18], the system named is Escherichia coli. Description: Antibacterial activity against Escherichia coli after 24 hrs. Type of assay: functional.
Assay [19] concerns Pseudomonas aeruginosa. Description: Antibacterial activity against Pseudomonas aeruginosa after 24 hrs. Type of assay: functional.
Assay [20] deals with Klebsiella pneumoniae. Nature of the assay: Antibacterial activity against Klebsiella pneumoniae after 24 hrs. The format is functional.
Assay [21] relates to Streptococcus pyogenes. Nature of the assay: Antibacterial activity against Streptococcus pyogenes after 24 hrs. Type of assay: functional.
For assay [22], the system named is Aspergillus flavus. Description: Antifungal activity against Aspergillus flavus at >100 ug/mL after 48 hrs. The format is functional, organism-based.
Assay [23] deals with Pseudomonas aeruginosa. Nature of the assay: Antibacterial activity against Pseudomonas aeruginosa at >100 ug/mL after 24 hrs by broth dilution method. The format is functional, organism-based.
Assay [24] has as its system Klebsiella pneumoniae. Description: Antibacterial activity against Klebsiella pneumoniae at >100 ug/mL after 24 hrs by broth dilution method. Type of assay: functional, organism-based.

For `C[C@@H]1[C@H](O)[C@@H](C)/C=C/C=C/C=C/C=C/C=C/C=C/C=C/[C@H](O[C@@H]2O[C@H](C)[C@@H](O)[C@H](N)[C@@H]2O)C[C@@H]2O[C@](O)(C[C@@H](O)C[C@@H](O)[C@H](O)CC[C@@H](O)C[C@@H](O)CC(=O)O[C@H]1C)C[C@H](O)[C@H]2C(=O)O` [AMPHOTERICIN B], the “inhibition zone (IZ)” value in the assay with Aspergillus flavus [1] is recorded as 21 mm; in assay [3], 23 mm; with Talaromyces marneffei [5], 25 mm; in the assay on Candida albicans [7], 19 mm; with Aspergillus fumigatus [9] it was 25 mm. For the same molecule, the MIC (against Aspergillus flavus [2]; in [4]; with Talaromyces marneffei [6]; with Candida albicans [8]; against Aspergillus fumigatus [10]) was 6.25 µg/mL (≈ 6.76 µM) in each case.

Regarding `O=c1c(Cc2ccc(Cl)cc2Cl)nnc2scc(-c3ccc(Br)cc3)n12`, the “inhibition zone (IZ)” value in the assay with Aspergillus flavus [1] was found to be 16 mm; in [3] it was 11 mm; in the assay on Candida albicans [7], 7 mm; with Aspergillus fumigatus [9] it was 12 mm; with Staphylococcus aureus [17], 21 mm; with Escherichia coli [18], 26 mm. Besides, the “inhibition zone (IZ)” value in the assay on Pseudomonas aeruginosa [19] came to 29 mm; in the assay on Klebsiella pneumoniae [20], 18 mm; in the assay on Streptococcus pyogenes [21], 20 mm. Besides, the minimal inhibitory concentration (MIC) was found to be 6.25 µg/mL (≈ 13.4 µM) against Staphylococcus aureus [11]; 6.25 µg/mL (≈ 13.4 µM) in the assay on Escherichia coli [12]; 6.25 µg/mL (≈ 13.4 µM) in the assay on Aspergillus flavus [2]; 12.5 µg/mL (≈ 26.8 µM) in [4]; 25 µg/mL (≈ 53.5 µM) in the assay on Candida albicans [8]; 12.5 µg/mL (≈ 26.8 µM) with Aspergillus fumigatus [10]. The MIC in the assay with Pseudomonas aeruginosa [14], against Klebsiella pneumoniae [15] and in the assay with Streptococcus pyogenes [16] was 6.25 µg/mL (≈ 13.4 µM) throughout. Also, the inhibition entry in the assay on Talaromyces marneffei [13] is “inactive”.

For the molecule `O=C(O)c1cn(C2CC2)c2cc(N3CCNCC3)c(F)cc2c1=O` [CIPROFLOXACIN], the MIC in the assay on Klebsiella pneumoniae [15] and in the assay on Streptococcus pyogenes [16] was 6.25 µg/mL (≈ 18.9 µM) throughout. Further, the “inhibition zone (IZ)” value was 23 mm in the assay on Staphylococcus aureus [17]; 30 mm with Escherichia coli [18]; 33 mm in the assay on Pseudomonas aeruginosa [19]; 22 mm in the assay on Klebsiella pneumoniae [20]; 25 mm in the assay with Streptococcus pyogenes [21].

`COc1ccc(-c2csc3nnc(Cc4ccc(Cl)cc4Cl)c(=O)n23)cc1`: the MIC came to 12.5 µg/mL (≈ 29.9 µM) in the assay with Staphylococcus aureus [11]; 6.25 µg/mL (≈ 14.9 µM) against Escherichia coli [12]; 6.25 µg/mL (≈ 14.9 µM) in assay [4]; 25 µg/mL (≈ 59.8 µM) with Talaromyces marneffei [6]; 6.25 µg/mL (≈ 14.9 µM) in the assay with Candida albicans [8]; 6.25 µg/mL (≈ 14.9 µM) with Aspergillus fumigatus [10]. Further, the MIC against Streptococcus pyogenes [16] was found to be 25 µg/mL (≈ 59.8 µM). The inhibition entry with Aspergillus flavus [22], with Pseudomonas aeruginosa [23] and in the assay with Klebsiella pneumoniae [24] was “inactive” in each case. In addition, the “inhibition zone (IZ)” value was determined as 17 mm in assay [3]; 9 mm in the assay with Talaromyces marneffei [5]; 17 mm with Candida albicans [7]; 20 mm with Aspergillus fumigatus [9]; 12 mm with Staphylococcus aureus [17]; 22 mm with Escherichia coli [18]. Besides, the “inhibition zone (IZ)” value in the assay with Streptococcus pyogenes [21] was 8 mm.

Turning to `O=c1c(Cc2ccc(Cl)cc2)nnc2scc(-c3cc(F)c(Cl)cc3Cl)n12`, the “inhibition zone (IZ)” value with Aspergillus flavus [1] amounted to 18 mm; in [3], 21 mm; in the assay on Talaromyces marneffei [5] it was 25 mm; with Candida albicans [7], 17 mm; in the assay on Aspergillus fumigatus [9] it was 25 mm; with Staphylococcus aureus [17], 21 mm. In addition, the “inhibition zone (IZ)” value was found to be 27 mm in the assay with Escherichia coli [18], 29 mm with Pseudomonas aeruginosa [19], 18 mm in the assay on Klebsiella pneumoniae [20] and 24 mm in the assay with Streptococcus pyogenes [21]. In addition, the MIC (in the assay on Staphylococcus aureus [11]; in the assay with Escherichia coli [12]; against Aspergillus flavus [2]; in assay [4]; against Talaromyces marneffei [6]; in the assay with Candida albicans [8]) was 6.25 µg/mL (≈ 14.2 µM) each time. Besides, the MIC with Aspergillus fumigatus [10], in the assay on Pseudomonas aeruginosa [14], in the assay on Klebsiella pneumoniae [15] and in the assay with Streptococcus pyogenes [16] was 6.25 µg/mL (≈ 14.2 µM) throughout.

As usually defined, the MIC is the lowest concentration that inhibits growth of the organism. Higher therefore signals a need for much substance.
